The source made the active and inactive calls.
Experiments:
[1] = human, microsomes, 1 µM
[2] = Permeability in MDCK cells expressing BCRP at 5 uM by LC-MS/MS analysis; format: ADME, cell-based, Canis lupus familiaris; details: dog
Cytochrome P450 2C19 = Cytochrome P450 2C19 (Homo sapiens, UniProt P33261); experiment: Inhibition of human recombinant CYP2C19 at 10 uM incubated for 10 to 30 mins in presence of CYP-specific probe CEC substrate by LC-MS/MS analysis; format: ADME; details: recombinant enzyme
[3] = molecular target: Cannabinoid receptor 2 (Homo sapiens) (UniProt P34972); experiment: Inhibition of human CB2 receptor at 10 uM
[4] = molecular target: Prostaglandin G/H synthase 2 (Homo sapiens, UniProt P35354); experiment: Inhibition of human COX2 at 10 uM
[5] = molecular target: GABA-A receptor; anion channel (Rattus norvegicus) (UniProt O09028+P15431+P18506+P18508+P19969+P20236+P23574+P23576+P28471+P28473+P30191+P62813+P63079+P63138+Q91ZM7+Q9ES14); experiment: Inhibition of rat GABAA receptor at 10 uM; format: protein-complex assay
Cytochrome P450 2C8 = Cytochrome P450 2C8 (Homo sapiens, UniProt P10632); experiment: Inhibition of human recombinant CYP2C8 at 10 uM incubated for 10 to 30 mins in presence of CYP-specific probe DBF substrate by LC-MS/MS analysis; format: ADME; details: recombinant enzyme
[6] = molecular target: Beta-1 adrenergic receptor (Homo sapiens) (UniProt P08588); experiment: Inhibition of human adrenergic beta1 receptor at 10 uM
Mus musculus [7] = experiment: Suppression of cognitive dysfunction in transgenic rTg4510 mouse model assessed as prevention of hippocampal tissue loss at […], po dosed every other day for 45 days; format: functional, organism-based
[8] = molecular target: Amine oxidase [flavin-containing] A (Rattus norvegicus, UniProt P21396); experiment: Inhibition of rat MAOA at 10 uM
Cytochrome P450 2D6 = Cytochrome P450 2D6 (Homo sapiens, UniProt P10635); experiment: Inhibition of human recombinant CYP2D6 at 10 uM incubated for 10 to 30 mins in presence of CYP-specific probe MFC substrate by LC-MS/MS analysis; format: ADME; details: recombinant enzyme
[9] = molecular target: Sodium-dependent dopamine transporter (Homo sapiens) (UniProt Q01959); experiment: Inhibition of human dopamine transporter at 10 uM
[10] = molecular target: 5-hydroxytryptamine receptor 2A (Homo sapiens) (UniProt P28223); experiment: Inhibition of human 5HT2A receptor at 10 uM
[11] = molecular target: Neuronal acetylcholine receptor; alpha4/beta2 (Homo sapiens) (UniProt P17787+P43681); experiment: Inhibition of human alpha4beta2 nAChR receptor at 10 uM; format: protein-complex assay
Rattus norvegicus [12] = species on record: Rattus norvegicus; experiment: Inhibition of rat potassium channel at 10 uM
[13] = molecular target: Histamine H2 receptor (Homo sapiens) (UniProt P25021); experiment: Inhibition of human histamine H2 receptor at 10 uM
[14] = molecular target: Beta-2 adrenergic receptor (Homo sapiens) (UniProt P07550); experiment: Inhibition of human adrenergic beta2 receptor at 10 uM
Mus musculus [15] = experiment: Suppression of human recombinant tau-induced memory impairment in C57Bl/6 mouse model of oligomeric tau infusion model assessed as attenuation of deficits in spatial and associative memory performance at 5 mg/kg, ip dosed 20 mins prior to start of testing by contextual fear conditioning assay; format: functional, organism-based
[16] = molecular target: 5-hydroxytryptamine receptor 3A (Homo sapiens) (UniProt P46098); experiment: Inhibition of human 5HT3 receptor at 10 uM
[17] = molecular target: Muscarinic acetylcholine receptor M1 (Homo sapiens) (UniProt P11229); experiment: Inhibition of human muscarinic M1 receptor at 10 uM
[18] = molecular target: cGMP-inhibited 3',5'-cyclic phosphodiesterase 3A (Homo sapiens, UniProt Q14432); experiment: Inhibition of human PDE3A at 10 uM
[19] = molecular target: Glutamate NMDA receptor (Rattus norvegicus) (UniProt P35439+Q00959+Q00960+Q00961+Q62645+Q8VHN2+Q9R1M7); experiment: Inhibition of rat NMDA receptor at 10 uM; format: protein-complex assay
Mus musculus [20] = experiment: Suppression of cognitive dysfunction in transgenic rTg4510 mouse model assessed as prevention of cortical tissue loss at […], po dosed every other day for 45 days; format: functional, organism-based
[21] = molecular target: Amine oxidase [flavin-containing] B (Homo sapiens, UniProt P27338); experiment: Inhibition of human MAOB at 10 uM
[22] = molecular target: Alpha-2A adrenergic receptor (Homo sapiens) (UniProt P08913); experiment: Inhibition of human adrenergic alpha2a receptor at 10 uM
[23] = Toxicity in APP/PS1 knock-in mouse assessed as induction of abnormalities in liver at 250 mg/kg; format: organism-based; details: in vivo
[24] = molecular target: Sodium-dependent serotonin transporter (Homo sapiens) (UniProt P31645); experiment: Inhibition of human serotonin transporter at 10 uM
Cytochrome P450 3A4 [25] = molecular target: T1, Cytochrome P450 3A4 (Homo sapiens, UniProt P08684); experiment: Inhibition of human recombinant CYP3A4 at 10 uM incubated for 10 to 30 mins in presence of CYP-specific probe BzRes substrate by LC-MS/MS analysis; format: ADME; details: recombinant enzyme
[26] = molecular target: Histamine H1 receptor (Homo sapiens) (UniProt P35367); experiment: Inhibition of human histamine H1 receptor at 10 uM
[27] = molecular target: Prostaglandin G/H synthase 1 (Homo sapiens, UniProt P23219); experiment: Inhibition of human COX1 at 10 uM
Cytochrome P450 1A2 = Cytochrome P450 1A2 (Homo sapiens, UniProt P05177); experiment: Inhibition of human recombinant CYP1A2 at 10 uM incubated for 10 to 30 mins in presence of CYP-specific probe CEC substrate by LC-MS/MS analysis; format: ADME; details: recombinant enzyme
Rattus norvegicus [28] = species on record: Rattus norvegicus; experiment: Inhibition of rat sodium sodium channel at 10 uM
[29] = molecular target: Delta-type opioid receptor (Homo sapiens) (UniProt P41143); experiment: Inhibition of human OP1 receptor at 10 uM
[30] = Permeability in human Caco2 cells at 5 uM by LC-MS/MS analysis; format: ADME, cell-based; details: caco-2, 5 µM
Cytochrome P450 2B6 = Cytochrome P450 2B6 (Homo sapiens, UniProt P20813); experiment: Inhibition of human recombinant CYP2B6 at 10 uM incubated for 10 to 30 mins in presence of CYP-specific probe EFC substrate by LC-MS/MS analysis; format: ADME; details: recombinant enzyme
[31] = Toxicity in wild type mouse assessed as induction of abnormalities in liver at 250 mg/kg; format: organism-based; details: in vivo
[32] = molecular target: D(2) dopamine receptor (Homo sapiens) (UniProt P14416); experiment: Inhibition of human D2S receptor at 10 uM
[33] = molecular target: Sodium-dependent noradrenaline transporter (Homo sapiens) (UniProt P23975); experiment: Inhibition of human norepinephrine transporter at 10 uM
Mus musculus [34] = experiment: Suppression of cognitive dysfunction in transgenic rTg4510 mouse model assessed as reduction in errors at […], po dosed every other day for 45 days by radial arm water maze test; format: functional, organism-based
[35] = molecular target: Vasopressin V1a receptor (Homo sapiens) (UniProt P37288); experiment: Inhibition of human V1A receptor at 10 uM
[36] = molecular target: Mu-type opioid receptor (Homo sapiens) (UniProt P35372); experiment: Inhibition of human OP3 receptor at 10 uM
[37] = molecular target: Androgen receptor (Homo sapiens) (UniProt P10275); experiment: Inhibition of human androgen receptor at 10 uM
[38] = molecular target: Kappa-type opioid receptor (Homo sapiens) (UniProt P41145); experiment: Inhibition of human OP2 receptor at 10 uM
[39] = molecular target: Cannabinoid receptor 1 (Homo sapiens) (UniProt P21554); experiment: Inhibition of human CB1 receptor at 10 uM
Acetylcholinesterase = Acetylcholinesterase (Homo sapiens, UniProt P22303); experiment: Inhibition of human acetyl cholinesterase at 10 uM
Mus musculus [40] = experiment: Effect on memory function in C57Bl/6 mouse at 5 mg/kg, ip dosed 20 mins prior to start of testing by radial arm water maze test; format: ADME, organism-based; details: in vivo
[41] = molecular target: Muscarinic acetylcholine receptor M3 (Homo sapiens) (UniProt P20309); experiment: Inhibition of human muscarinic M3 receptor at 10 uM
in vitro [42] = details: Beagle, dog, hepatocytes
Description: Half life in Beagle dog hepatocytes at 1 uM by LC-MS/MS analysis

Mus musculus [43] = experiment: Suppression of human recombinant tau-induced memory impairment in C57Bl/6 mouse model of oligomeric tau infusion model assessed as attenuation of deficits in spatial and associative memory performance at 5 mg/kg, ip dosed 20 mins prior to start of testing by radial arm water maze test; format: functional, organism-based
[44] = molecular target: Adenosine receptor A2a (Homo sapiens) (UniProt P29274); experiment: Inhibition of human adenosine A2A receptor at 10 uM
[45] = molecular target: 5-hydroxytryptamine receptor 2B (Homo sapiens) (UniProt P41595); experiment: Inhibition of human 5HT2B receptor at 10 uM
[46] = molecular target: D(1A) dopamine receptor (Homo sapiens) (UniProt P21728); experiment: Inhibition of human DRD1 receptor at 10 uM
[47] = molecular target: 5-hydroxytryptamine receptor 1A (Homo sapiens) (UniProt P08908); experiment: Inhibition of human 5HT1A receptor at 10 uM
[48] = molecular target: Glucocorticoid receptor (Homo sapiens) (UniProt P04150); experiment: Inhibition of human glucocorticoid receptor at 10 uM
Mus musculus [49] = experiment: Suppression of cognitive dysfunction in transgenic rTg4510 mouse model assessed as rescue of freezing deficit at […], po dosed every other day for 45 days by contextual fear conditioning assay; format: functional, organism-based
[50] = molecular target: 3',5'-cyclic-AMP phosphodiesterase 4D (Homo sapiens) (UniProt Q08499); experiment: Inhibition of human PDE4D2 at 10 uM
[51] = molecular target: Cholecystokinin receptor type A (Homo sapiens) (UniProt P32238); experiment: Inhibition of human CCK1 receptor at 10 uM
Cytochrome P450 2C9 = Cytochrome P450 2C9 (Homo sapiens, UniProt P11712); experiment: Inhibition of human recombinant CYP2C9 at 10 uM incubated for 10 to 30 mins in presence of CYP-specific probe MFC substrate by LC-MS/MS analysis; format: ADME; details: recombinant enzyme
[52] = molecular target: Voltage-gated L-type calcium channel (Rattus norvegicus, UniProt P22002+Q02485+P27732); experiment: Inhibition of rat L-type calcium channel at 10 uM; format: protein assay
Cytochrome P450 3A4 [53] = molecular target: T1, Cytochrome P450 3A4; experiment: Inhibition of human recombinant CYP3A4 at 10 uM incubated for 10 to 30 mins in presence of CYP-specific probe BFC substrate by LC-MS/MS analysis; format: ADME; details: recombinant enzyme
in vitro [54] = details: human, hepatocytes
Description: Half life in human hepatocytes at 1 uM by LC-MS/MS analysis

[55] = molecular target: 5-hydroxytryptamine receptor 1B (Homo sapiens) (UniProt P28222); experiment: Inhibition of human 5HT1B receptor at 10 uM
in vivo = details: mouse, po
Description: Toxicity in orally dosed wild type mouse dosed daily for 14 days

[56] = molecular target: Alpha-1A adrenergic receptor (Homo sapiens) (UniProt P35348); experiment: Inhibition of human adrenergic alpha1a receptor at 10 uM

T1 sequence (P08684 whole entry): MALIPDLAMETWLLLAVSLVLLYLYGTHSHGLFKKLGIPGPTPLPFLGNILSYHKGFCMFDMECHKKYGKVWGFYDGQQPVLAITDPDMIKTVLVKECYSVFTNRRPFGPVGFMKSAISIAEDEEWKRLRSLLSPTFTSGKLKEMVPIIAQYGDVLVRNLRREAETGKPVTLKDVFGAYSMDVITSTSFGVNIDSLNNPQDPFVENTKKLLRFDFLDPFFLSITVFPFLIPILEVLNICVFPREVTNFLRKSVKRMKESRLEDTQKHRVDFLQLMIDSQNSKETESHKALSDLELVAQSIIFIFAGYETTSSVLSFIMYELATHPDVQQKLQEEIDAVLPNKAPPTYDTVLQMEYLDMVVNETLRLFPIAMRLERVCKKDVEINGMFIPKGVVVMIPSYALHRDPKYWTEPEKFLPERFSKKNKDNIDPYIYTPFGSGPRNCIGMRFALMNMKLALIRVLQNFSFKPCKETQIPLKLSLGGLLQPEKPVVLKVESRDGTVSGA
Histamine H2 receptor (Homo sapiens), sequence (P25021 whole entry): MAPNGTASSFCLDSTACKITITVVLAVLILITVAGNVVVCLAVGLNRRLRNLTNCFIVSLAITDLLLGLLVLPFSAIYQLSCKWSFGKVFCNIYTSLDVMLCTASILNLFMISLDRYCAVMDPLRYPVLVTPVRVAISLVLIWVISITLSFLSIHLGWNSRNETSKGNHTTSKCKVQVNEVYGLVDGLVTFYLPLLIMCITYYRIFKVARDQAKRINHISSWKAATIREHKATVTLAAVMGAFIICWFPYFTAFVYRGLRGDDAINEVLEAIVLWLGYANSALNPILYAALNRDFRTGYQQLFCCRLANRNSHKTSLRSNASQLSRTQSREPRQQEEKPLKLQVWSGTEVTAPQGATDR
Mu-type opioid receptor (Homo sapiens), sequence (P35372 whole entry): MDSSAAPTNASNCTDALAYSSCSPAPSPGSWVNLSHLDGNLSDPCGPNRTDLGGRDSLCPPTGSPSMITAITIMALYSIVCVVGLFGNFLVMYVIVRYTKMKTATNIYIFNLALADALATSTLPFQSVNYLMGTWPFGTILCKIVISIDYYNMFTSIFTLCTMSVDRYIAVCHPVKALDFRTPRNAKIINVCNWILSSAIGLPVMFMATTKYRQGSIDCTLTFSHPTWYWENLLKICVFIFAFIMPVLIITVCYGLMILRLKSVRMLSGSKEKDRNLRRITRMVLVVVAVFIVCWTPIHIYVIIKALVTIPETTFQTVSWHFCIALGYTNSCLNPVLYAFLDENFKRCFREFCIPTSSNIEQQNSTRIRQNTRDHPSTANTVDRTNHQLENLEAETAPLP
D(2) dopamine receptor (Homo sapiens), sequence (P14416 whole entry): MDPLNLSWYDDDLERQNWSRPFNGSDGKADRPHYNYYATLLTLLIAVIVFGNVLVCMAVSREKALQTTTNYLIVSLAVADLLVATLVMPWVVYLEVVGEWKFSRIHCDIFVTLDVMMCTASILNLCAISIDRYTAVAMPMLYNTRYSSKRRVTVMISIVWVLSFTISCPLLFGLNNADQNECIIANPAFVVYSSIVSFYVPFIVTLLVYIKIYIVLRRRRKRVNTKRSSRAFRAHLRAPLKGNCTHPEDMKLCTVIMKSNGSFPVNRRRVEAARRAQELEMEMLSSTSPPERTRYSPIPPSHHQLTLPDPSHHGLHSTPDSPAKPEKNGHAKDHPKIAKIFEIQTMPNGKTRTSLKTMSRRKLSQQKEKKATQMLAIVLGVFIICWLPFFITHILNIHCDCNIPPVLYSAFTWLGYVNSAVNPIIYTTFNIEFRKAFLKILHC
Sodium-dependent noradrenaline transporter (Homo sapiens), sequence (P23975 whole entry): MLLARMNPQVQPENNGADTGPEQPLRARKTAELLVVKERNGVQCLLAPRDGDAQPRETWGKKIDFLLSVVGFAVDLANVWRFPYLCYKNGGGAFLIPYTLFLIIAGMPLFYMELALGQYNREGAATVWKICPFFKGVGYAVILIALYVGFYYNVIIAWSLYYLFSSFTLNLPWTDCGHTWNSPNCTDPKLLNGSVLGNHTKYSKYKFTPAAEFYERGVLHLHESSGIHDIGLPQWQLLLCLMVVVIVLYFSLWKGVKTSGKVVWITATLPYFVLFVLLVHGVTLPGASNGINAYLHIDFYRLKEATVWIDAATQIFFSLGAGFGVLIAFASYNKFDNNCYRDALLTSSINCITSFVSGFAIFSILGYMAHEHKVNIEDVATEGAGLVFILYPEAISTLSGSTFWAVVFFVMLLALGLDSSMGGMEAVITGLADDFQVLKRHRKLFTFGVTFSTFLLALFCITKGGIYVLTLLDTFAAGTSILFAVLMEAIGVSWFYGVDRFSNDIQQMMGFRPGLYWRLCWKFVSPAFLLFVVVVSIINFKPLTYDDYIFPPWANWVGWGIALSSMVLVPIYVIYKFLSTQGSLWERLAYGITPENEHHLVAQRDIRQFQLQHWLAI
D(1A) dopamine receptor (Homo sapiens), sequence (P21728 whole entry): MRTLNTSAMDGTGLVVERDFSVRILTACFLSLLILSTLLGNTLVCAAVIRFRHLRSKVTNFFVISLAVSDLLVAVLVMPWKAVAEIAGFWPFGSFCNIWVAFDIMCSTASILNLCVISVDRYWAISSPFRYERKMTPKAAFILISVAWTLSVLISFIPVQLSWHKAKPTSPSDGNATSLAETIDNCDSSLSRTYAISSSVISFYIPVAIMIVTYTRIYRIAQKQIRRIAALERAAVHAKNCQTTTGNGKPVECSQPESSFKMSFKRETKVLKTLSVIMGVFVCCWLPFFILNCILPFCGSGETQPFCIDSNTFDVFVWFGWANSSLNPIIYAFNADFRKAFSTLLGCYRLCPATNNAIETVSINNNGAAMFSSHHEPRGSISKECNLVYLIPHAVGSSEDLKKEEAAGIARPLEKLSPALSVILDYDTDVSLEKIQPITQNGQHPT
cGMP-inhibited 3',5'-cyclic phosphodiesterase 3A, sequence (Q14432 whole entry): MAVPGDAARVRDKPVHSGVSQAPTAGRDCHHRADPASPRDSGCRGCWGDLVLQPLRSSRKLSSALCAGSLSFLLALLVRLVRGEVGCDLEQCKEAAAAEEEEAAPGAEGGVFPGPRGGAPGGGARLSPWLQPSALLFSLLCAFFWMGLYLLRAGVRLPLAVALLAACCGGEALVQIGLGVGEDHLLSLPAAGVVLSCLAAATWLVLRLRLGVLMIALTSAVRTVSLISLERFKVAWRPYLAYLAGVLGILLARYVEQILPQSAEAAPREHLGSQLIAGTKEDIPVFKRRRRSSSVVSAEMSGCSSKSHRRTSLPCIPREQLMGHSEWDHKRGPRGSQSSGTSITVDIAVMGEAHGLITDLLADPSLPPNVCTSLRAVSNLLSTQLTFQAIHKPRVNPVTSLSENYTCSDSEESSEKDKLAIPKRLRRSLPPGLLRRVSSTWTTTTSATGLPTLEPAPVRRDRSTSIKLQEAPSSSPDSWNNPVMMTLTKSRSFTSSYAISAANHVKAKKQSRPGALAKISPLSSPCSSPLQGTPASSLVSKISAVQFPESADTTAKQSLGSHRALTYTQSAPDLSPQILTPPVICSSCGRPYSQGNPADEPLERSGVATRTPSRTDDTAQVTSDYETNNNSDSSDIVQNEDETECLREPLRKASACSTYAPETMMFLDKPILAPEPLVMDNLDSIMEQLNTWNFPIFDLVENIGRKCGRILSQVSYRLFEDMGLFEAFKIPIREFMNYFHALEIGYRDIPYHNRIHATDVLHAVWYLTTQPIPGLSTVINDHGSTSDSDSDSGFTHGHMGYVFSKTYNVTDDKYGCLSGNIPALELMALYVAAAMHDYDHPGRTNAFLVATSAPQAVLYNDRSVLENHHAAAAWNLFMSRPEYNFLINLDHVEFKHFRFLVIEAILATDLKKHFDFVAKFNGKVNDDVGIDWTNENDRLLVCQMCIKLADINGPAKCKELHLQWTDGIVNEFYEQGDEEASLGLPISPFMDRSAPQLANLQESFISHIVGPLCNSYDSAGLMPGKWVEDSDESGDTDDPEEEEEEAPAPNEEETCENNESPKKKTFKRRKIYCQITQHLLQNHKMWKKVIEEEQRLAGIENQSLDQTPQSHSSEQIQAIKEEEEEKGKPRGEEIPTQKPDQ
Cytochrome P450 2C9, sequence (P11712 whole entry): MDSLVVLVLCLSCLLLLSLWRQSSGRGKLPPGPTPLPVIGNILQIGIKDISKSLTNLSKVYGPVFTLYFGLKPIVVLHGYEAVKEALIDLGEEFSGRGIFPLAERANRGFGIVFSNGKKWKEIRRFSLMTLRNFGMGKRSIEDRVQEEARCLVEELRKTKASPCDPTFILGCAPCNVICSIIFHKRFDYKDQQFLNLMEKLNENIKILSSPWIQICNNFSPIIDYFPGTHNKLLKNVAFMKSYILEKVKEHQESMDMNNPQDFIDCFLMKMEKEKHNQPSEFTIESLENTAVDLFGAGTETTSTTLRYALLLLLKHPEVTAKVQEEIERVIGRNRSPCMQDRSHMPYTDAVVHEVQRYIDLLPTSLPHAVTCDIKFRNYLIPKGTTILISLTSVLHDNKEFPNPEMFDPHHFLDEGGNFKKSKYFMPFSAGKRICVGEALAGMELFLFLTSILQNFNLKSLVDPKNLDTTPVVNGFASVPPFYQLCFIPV
Delta-type opioid receptor (Homo sapiens), sequence (P41143 whole entry): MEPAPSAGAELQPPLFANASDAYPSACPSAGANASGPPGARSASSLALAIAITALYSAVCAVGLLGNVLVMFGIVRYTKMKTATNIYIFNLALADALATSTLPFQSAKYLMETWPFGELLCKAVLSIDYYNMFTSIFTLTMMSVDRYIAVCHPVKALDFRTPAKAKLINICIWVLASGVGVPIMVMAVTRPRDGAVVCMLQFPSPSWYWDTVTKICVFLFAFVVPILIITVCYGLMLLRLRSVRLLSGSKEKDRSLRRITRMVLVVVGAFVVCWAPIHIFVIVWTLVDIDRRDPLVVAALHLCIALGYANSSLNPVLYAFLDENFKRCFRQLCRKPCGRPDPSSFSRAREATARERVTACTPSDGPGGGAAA

c1ccc2cc(-c3nnc(N4CCCCC4)cc3-c3ccncc3)ccc2c1
0.1 h: t1/2 [1]

c1ccc2cc(-c3nnc(N4CCNCC4)cc3-c3ccncc3)ccc2c1
> 1 h: t1/2 [1]

CN1CCN(c2cc(-c3ccncc3)c(-c3ccc4ccccc4c3)nn2)CC1 [MW-150]
Not Active: inhibition (INH) (Cytochrome P450 2C19) | inhibition (INH) [4] | inhibition (INH) (Cytochrome P450 2C8) | inhibition (INH) [8] | inhibition (INH) (Cytochrome P450 2D6) | inhibition (INH) [18] | inhibition (INH) [21] | inhibition (INH) (Cytochrome P450 3A4 [25]) | inhibition (INH) [27] | inhibition (INH) (Cytochrome P450 1A2) | inhibition (INH) (Cytochrome P450 2B6) | inhibition (INH) (Acetylcholinesterase) | inhibition (INH) (Cytochrome P450 2C9) | inhibition (INH) [52] | inhibition (INH) (Cytochrome P450 3A4 [53])
inactive: inhibition [3] | inhibition [5] | inhibition [6] | Activity (Mus musculus [7]) | inhibition [9] | inhibition [10] | inhibition [11] | inhibition (Rattus norvegicus [12]) | inhibition [13] | inhibition [14] | inhibition [16] | inhibition [17] | inhibition [19] | inhibition [22] | inhibition [24] | inhibition [26] | inhibition (Rattus norvegicus [28]) | inhibition [29] | inhibition [32] | inhibition [33] | inhibition [35] | inhibition [36] | inhibition [37] | inhibition [38] | inhibition [39] | inhibition [41] | inhibition [44] | inhibition [45] | inhibition [46] | inhibition [47] | inhibition [48] | inhibition [50] | inhibition [51] | inhibition [55] | inhibition [56]
Permeable: permeability [2] | permeability [30]
active: Activity (Mus musculus [15]) | Activity (Mus musculus [20]) | Activity (Mus musculus [34]) | Activity (Mus musculus [43]) | Activity (Mus musculus [49])
Non-Toxic: Activity [23] | Activity [31] | Activity (Mus musculus [40])
> 2 h: half-life at 1 µM (in vitro [42]) | half-life at 1 µM (in vitro [54])
125 mg/kg: NOAEL at 336 h (in vivo)

Source: ChEMBL document CHEMBL4602604, “A Selective and Brain Penetrant p38αMAPK Inhibitor Candidate for Neurologic and Neuropsychiatric Disorders That Attenuates Neuroinflammation and Cognitive Dysfunction” (J Med Chem, 2019)
